In patent publication US12350273B2, “Treatment of SMA” (Hoffmann-La Roche Inc., priority 2017, dated 2025):

Columns and labels:
human iPSCs = test: Cell cycle analysis of human iPSCs (flow cytometry); type: cell-based; settings: 24 h, 30 nM (positive control)
Procedure: (§1) For the analysis of the cell cycle, monkey stem cells were detached with Accutase (Stem Cell Technologies) and plated at 15000 cells/cm2 in 6 well plates coated with Matrigel (BD Biosciences) in MT medium supplemented with 10 ng/ml ActivinA, 15 ng/ml FGF2, and 10 μM Rock inhibitor. Cells were expanded for 1 day and then synchronized by starvation for 7 h in MT medium without supplements FGF2 and ActivinA. Before flow cytometry, cells were incubated for 24 h with fresh MT medium containing supplements FGF2 and ActivinA and test items at 80 nM, 400 nM, and 2000 nM or 30 nM rapamycin as positive control to arrest cells in G1 phase. Human stem cells were detached with Accutase (Stem Cell Technologies) and plated at 40000 cells/cm2 in 6 well plates coated with Matrigel (BD Biosciences) in mTeSR1 supplemented with 10 μM Rock Inhibitor Y-27632 (Sigma-Aldrich). Cells were expanded for 3 days with daily medium change. Since human iPSCs lose their properties during starvation by growth factor withdrawal, stem cells were synchronized with 200 ng/ml Nocodazole (Sigma-Aldrich) for 5 h and washed subsequently 2 times with mTesR1 Medium. Before flow cytometry, cells were incubated for 24 h with fresh TesR1 medium containing test items at 80 nM, 400 nM, and 2000 nM or 30 nM rapamycin as positive control to arrest cells in G1 phase.
(§2) For cell cycle analysis, human iPSCs were washed with PBS, detached with Accutase (Stem Cell Technologies) and collected by centrifugation. Cells were stained for 1 h at 37° C. with 600 ul of 7 AAD/Saponin/RNAse mix ([…] 7 AAD (#559925, BD), 50 μg/ml RNase, and 0.03% Saponin dissolved in FACS buffer (PBS, 5% FBS, 10 mM Hepes)). Cynomolgus monkey iPSCs were washed with PBS, detached with Accutase (Stem Cell Technologies) and collected by centrifugation. Cells were stained for 30 min at 37° C. in 300 ul standard MT medium (with FGF2 and ActivinA) containing 1 ul Vybrant Dye Cycle Violet Stain (#V35003, 1000× stock, Invitrogen) per ml medium. Additionally 2 ul 7 AAD (50 μg/ml 7 AAD) were added without permeabilization to label dead cells; cells were incubated for 10 min at 37° C. Flow cytometry analysis was performed using a Canto II cytometer (BD Biosciences) and data were analysed with the FlowJo software.

Cynomolgus monkey iPSCs = test: Cell cycle analysis of Cynomolgus monkey iPSCs (flow cytometry); type: cell-based; settings: Cynomolgus monkey iPSCs, 24 h, 30 nM (positive control)
Procedure: as §1, §2

CO[C@H]1C[C@@H]2CC[C@@H](C)[C@@](O)(O2)C(=O)C(=O)N2CCCC[C@H]2C(=O)O[C@H]([C@H](C)C[C@@H]2CC[C@@H](O)[C@H](OC)C2)CC(=O)[C@H](C)/C=C(\C)[C@@H](O)[C@@H](OC)C(=O)[C@H](C)C[C@H](C)/C=C/C=C/C=C/1C [Rapamycin, reference compound]
percentage of events in G1 phase, mean (human iPSCs): 58.3% | percentage of events in G2 phase, mean (human iPSCs): 30.5% | percentage of events in S phase, mean (human iPSCs): 11.2% | percentage of events in G1 phase, mean (Cynomolgus monkey iPSCs): 41.7% | percentage of events in G2 phase, mean (Cynomolgus monkey iPSCs): 45.6% | percentage of events in S phase, mean (Cynomolgus monkey iPSCs): 12.7%
